Test results taken from patent US12275685B2, “Oligo-benzamide analogs and their use in cancer treatment” (Board of Regents, The University of Texas System, priority 2018, dated 2025).

Experiments:
[1] = system: ZR-75 MT-ERα cells; assay: Colony formation, ZR-75 MT-ERα; type: cell-based
Experimental: The 200 nM dose for these drugs reflects the level at which each of these drugs has a significant effect on spheroid formation in the MCF-7 WT-ERa cells. Taken together, these studies indicate that TX-542 has significant activity against both WT-ERα and MT-ERα driven ERα+ BC cell lines and is a worthwhile candidate for further study.

[2] = system: MCF-7 MT-ERα Y537S cells; type: cell-based; settings: 200 nM
[3] = system: BC cells expressing MT-ERα (MCF-7, ZR-75, T47-D); assay: Cell titer glo antiproliferative assay in MT-ERα BC cells; type: cell-based; settings: T47-D Y537S MT
Description: FIG. 52: Comparative efficacy of TX-542 and SERDs in BC cells expressing WT and/or MT ERα: Using CRISPR-Cas9, both copies of WT ERα genes were knocked out in ZR-75 and T47-D, while only one copy of WT Era was knocked out in MCF-7 cells. Following knockout of WT ERα clones with stable expression of either Y537S ERα MT or the D538G ERα MT were selected. […] ERα-negative TNBC cells (SUM-159 and MDA-MB-231) were used as controls. Dose response curves were generated for ERX-11, TX-542 and SERDs using cell titer glo assays. IC50 values for each cell line and drug were calculated and tabulated. Tam=tamoxifen, ICI=fulvestrant, GDC-0810=Genentech SERD, AZD-9496 Astra Zeneca SERD, RAD-1901=Radius SERD, Palbo=Palbociclib. IC50 values<50 nM are shown in red.
TX-542. TX-542 was potent (IC50˜20-50 nM) as an antiproliferative agent against expressing MT-ERα, both in genetically modified MCF-7 cells with one WT-ERα allele and one MT-ERα allele introduced by CRISPR and genetically modified ZR-75 or T47-D cells in which both copies of WT-ERα alleles were replaced using CRISPR with MT-ERα. TX-542 had no activity against ER-null (SUM-159 or MDA-MB-231 cells) or non-tumorigenic breast epithelial cells, such as human mammary epithelial cells (HMEC). […] In addition, these agents are not able to consistently target all the MT-ERα forms in distinct genetic contexts, as shown in FIG. 52 and as reported by others.

[4] = system: MCF-7 MT-ERα Y537S and D538G cells; type: cell-based; settings: comparators at 200 nM in MCF-7 MT-ERα Y537S cells
[5] = system: MT-ERα; assay: RNA sequencing of MT-ERα transcriptional programme; type: cell-based; settings: MCF-7 and ZR-75 cells expressing D538G and Y537S MT-ERα
Description: FIGS. 66A-D: (FIG. 66A) Effect of ERX-315 on ERa DNA binding on the promoters of 5 canonical ERα-regulated genes with ERa ChIP in MCF-7 expressing D538G MT-ERα in the absence and presence of estradiol.
Prior studies have shown that MT-ERα drives a canonical ERα transcriptional programme, both in the absence and presence of estradiol. RNA sequencing studies indicate that ERX-315 alters the transcriptional heatmap in MCF-7 and ZR-75 cells expressing D538G and Y537S MT-ERα (FIG. 66B, data shown for MCF-7 cells expressing D538G MT-ERα).

[6] = biological target: T1, lipase activity of LIPA (Homo sapiens, UniProt P38571); assay: Lipase activity assay; type: biochemical; settings: SUM-159 cells
T1 construct: lipase activity of parental SUM-159 (WT) and SUM-159 cells with LIPA KO; endogenous in cells; host or cells: SUM-159 (parental)
Description: FIGS. 39A-N: (FIGS. 39A-E) Predicted binding mode of ERX-41 (colored in green) on the human lysosomal acid lipase (LAL, PDB code: 6V7N, LXXLL (SEQ ID NO: 1) domain colored in orange). (FIG. 39F) PDB structure of LAL protein showing relative positions of the catalytic domain (with H274Y MT) and the LXXLL (SEQ ID NO: 1) domain (L242P MT). (FIG. 39G) Evaluation of the effect of ERX-41 and lalistat (known lipase inhibitor) on lipase activity of parental SUM-159 (WT) and SUM-159 cells with LIPA KO. (FIG. 39H) Evaluation of basal lipase activity in parental SUM-159 (WT), SUM-159 cells with LIPA KO (KO), SUM-159 cells with LIPA KO and with reconstitution of either WT LIPA (KO+WT), H274Y MT-LIPA (KO+H274Y), DLXXLL (SEQ ID NO: 2) MT-LIPA (KO+DLXXLL (SEQ ID NO: 2)) or L242P MT-LIPA (KO+L242P). Protein expression of LAL and control vinculin in these cells are shown below (FIG. 391) Cellular lysates from described SUM-159 cells were incubated with biotinylated ERX-11 or biotinylated ERX-41 and then subject to a streptavidin column. Elutants were then evaluated for LIPA pulldown by western blotting. (FIG. 39J) Dose response curve to increasing concentrations of ERX-41 in described SUM-159 cells. (FIGS. 39K-M) Effect of vehicle or 1 μM ERX-41 on induction of UPR genes at the protein level (FIG. 39K) or RNA level (FIGS. 39L-M). […]

[7] = biological target: T2, vitamin D receptor (VDR) (Homo sapiens, UniProt P11473); assay: Vitamin D receptor inhibition; type: cell-based
T2 construct: endogenous in cells; host or cells: cancer cells

[8] = system: OCa cells; assay: MTT assay in OCa cells; type: cell-based
Experimental: FIGS. 12A-12D show the effect of TK208 against ovarian cancer cell lines ES2 (FIGS. 12A & 12B) and SKOV3 (FIGS. 12C & 12D).
FIGS. 42A-D: OCa cells were treated with ERX-11 (FIG. 42A) or ERX-208 (FIG. 42B). Primary OCa cells derived from ascites were treated with ERX-208 for 72 h (FIG. 42C) and cell viability by MTT assays. (FIG. 42D) Effect of ERX-208 on viability of IOSE cells was measured using MTT assays and TOV21G was used as +ve control.
ERX-208. […] Functionally, ERX-208 causes growth inhibition of OCa cells, as noted by MTT assays using five established OCa cells (ES2, SKOV3, A2780, TOV21G, TOV112D) and five primary OCa cells derived from HGSOC patient ascites (AS21, AS23, AS25, AS28, AS29) (FIGS. 42B-C). […] The inventor noted an IC50 of ˜50-100 nM for ERX-208 both for inducing ERS and in reducing the growth of OCa cells.

[9] = system: ovarian cancer cells; assay: Growth inhibition of ovarian cancer cells; type: cell-based
Description: FIGS. 10A & 10B show effects of TK208 against cancer cells.
(§1) In addition, another tris-benzmaide compound TK208 was synthesized and tested against breast cancer and ovarian cancer cell lines (FIGS. 10-15). […] These compounds (e.g., TK41, TK208, TK308 (FIG. 21), TK309 (FIG. 22), TK314, TK315) are extremely potent compounds that inhibit tumor growth and kill breast and ovarian cancer cells and as such, they are superb therapeutic candidates for such diseases.

[10] = system: WT- and MT-ERα-driven cell lines (MCF-7, ZR-75); assay: Anti-proliferative activity in WT- and MT-ERα-driven cell lines; type: cell-based
[11] = system: breast cancer cells; assay: Growth inhibition of breast cancer cells; type: cell-based; settings: relative to ovarian cancer cells
Description: as §1

[12] = system: MT-ERα; assay: MT-ERα protein levels; type: cell-based
[13] = biological target: ERα (Homo sapiens, UniProt P03372); type: cell-based; settings: WT-ERα
Sequence of ERα (P03372 whole entry): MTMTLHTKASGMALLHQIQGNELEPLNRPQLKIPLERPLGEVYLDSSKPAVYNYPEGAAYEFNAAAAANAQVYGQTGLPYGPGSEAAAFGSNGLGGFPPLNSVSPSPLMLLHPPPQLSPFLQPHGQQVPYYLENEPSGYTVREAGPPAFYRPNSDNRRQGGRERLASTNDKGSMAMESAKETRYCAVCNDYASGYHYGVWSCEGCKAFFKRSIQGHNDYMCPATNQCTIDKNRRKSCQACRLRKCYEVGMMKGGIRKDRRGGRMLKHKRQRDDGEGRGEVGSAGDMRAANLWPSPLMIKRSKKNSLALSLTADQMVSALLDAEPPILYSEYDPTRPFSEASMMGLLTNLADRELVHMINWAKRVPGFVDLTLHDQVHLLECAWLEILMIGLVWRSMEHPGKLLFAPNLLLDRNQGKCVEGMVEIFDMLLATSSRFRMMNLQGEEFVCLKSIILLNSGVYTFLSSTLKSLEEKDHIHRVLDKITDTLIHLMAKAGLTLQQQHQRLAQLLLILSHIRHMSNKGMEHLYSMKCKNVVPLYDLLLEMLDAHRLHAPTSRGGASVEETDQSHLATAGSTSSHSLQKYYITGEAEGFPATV

T2 sequence (P11473 whole entry): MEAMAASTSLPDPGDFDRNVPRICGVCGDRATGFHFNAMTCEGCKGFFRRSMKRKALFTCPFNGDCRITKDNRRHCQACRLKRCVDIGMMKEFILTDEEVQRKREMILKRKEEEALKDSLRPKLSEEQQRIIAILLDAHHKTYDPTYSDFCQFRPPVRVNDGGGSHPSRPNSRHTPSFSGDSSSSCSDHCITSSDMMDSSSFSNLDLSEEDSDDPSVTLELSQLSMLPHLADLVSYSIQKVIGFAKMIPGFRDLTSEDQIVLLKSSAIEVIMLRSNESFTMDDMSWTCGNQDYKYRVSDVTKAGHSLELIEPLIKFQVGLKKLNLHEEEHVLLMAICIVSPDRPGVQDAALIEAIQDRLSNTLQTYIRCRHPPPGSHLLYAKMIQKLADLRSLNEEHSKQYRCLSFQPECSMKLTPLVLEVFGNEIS
T1 sequence (P38571 77-399): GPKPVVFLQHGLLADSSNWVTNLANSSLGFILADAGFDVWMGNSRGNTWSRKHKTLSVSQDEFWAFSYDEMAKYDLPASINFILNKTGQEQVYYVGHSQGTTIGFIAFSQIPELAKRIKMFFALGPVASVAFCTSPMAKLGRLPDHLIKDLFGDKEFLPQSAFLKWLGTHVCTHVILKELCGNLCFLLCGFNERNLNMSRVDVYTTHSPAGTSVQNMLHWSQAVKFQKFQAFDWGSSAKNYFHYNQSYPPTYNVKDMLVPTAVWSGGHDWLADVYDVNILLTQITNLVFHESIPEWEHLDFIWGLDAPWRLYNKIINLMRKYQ

C[C@@H]1Cc2c([nH]c3ccccc23)[C@@H](c2c(F)cc(/C=C/C(=O)O)cc2F)N1CC(C)(C)F [AZD-9496]
colony formation in ZR-75 MT-ERα cells [1]: activity was not seen | soft agar colony formation [2]: significantly affected colony formation | activity against T47-D Y537S MT [3]: potent activity | spheroid size or architecture [4]: neither ERX-11, palbociclib, GDC-0810 nor AZD-9496, tamoxifen nor fulvestrant (at 200 nM) significantly disrupted spheroid size or architecture

CC/C(=C(\c1ccccc1)c1ccc(OCCN(C)C)cc1)c1ccccc1 [tamoxifen]
MT-ERα transcriptional programme [5]: neither tamoxifen nor ERX-314 is able to alter the ERα-regulated transcriptome | soft agar colony formation [2]: neither the parental ERX-11, tamoxifen nor GDC0810 SERD (at the same concentrations) had an effect on colony formation | spheroid size or architecture [4]: neither ERX-11, palbociclib, GDC-0810 nor AZD-9496, tamoxifen nor fulvestrant (at 200 nM) significantly disrupted spheroid size or architecture

O=C(Oc1nsnc1N1CCCCC1)N1CCCCC1 [lalistat, reference compound]
effect on lipase activity of LIPA [6]: attenuated lipase activity

CC(C)COc1cc(C(=O)Nc2ncc[nH]2)ccc1NC(=O)c1ccc(NC(=O)c2ccc([N+](=O)[O-])c(OCCO)c2)c(OCC(C)C)c1 [YL144]
inhibition of VDR [7]: high potency

CC(C)COc1cc(C(N)=O)ccc1NC(=O)c1ccc(NC(=O)c2ccc([N+](=O)[O-])c(OCCO)c2)c(OCC(C)C)c1 [ERX-11, reference compound]
activity against OCa cells / cell viability [8]: limited activity | soft agar colony formation [2]: neither the parental ERX-11, tamoxifen nor GDC0810 SERD (at the same concentrations) had an effect on colony formation | spheroid size or architecture [4]: neither ERX-11, palbociclib, GDC-0810 nor AZD-9496, tamoxifen nor fulvestrant (at 200 nM) significantly disrupted spheroid size or architecture

CC(C)COc1cc(C(=O)Nc2ccc(C(=O)N[C@H]3CC[C@H](C)CC3)cc2OCC(C)C)ccc1NC(=O)c1ccc(F)c(OCCO)c1 [TK314]
MT-ERα transcriptional programme [5]: neither tamoxifen nor ERX-314 is able to alter the ERα-regulated transcriptome | IC50 [9]: 10 to 50 nM | activity against ovarian cancer cells [9]: unique activity against ovarian cancer cells | IC50 [10]: 1500 to 5000 nM | activity against breast cancer cells [11]: significantly less activity against breast cancer cells

CC/C(=C(/c1ccc(/C=C/C(=O)O)cc1)c1ccc2[nH]ncc2c1)c1ccc(F)cc1Cl [GDC-0810]
soft agar colony formation [2]: neither the parental ERX-11, tamoxifen nor GDC0810 SERD (at the same concentrations) had an effect on colony formation | ability to decrease MT-ERα protein levels [12]: neither fulvestrant nor GDC-0810 were able to decrease MT-ERα protein levels | spheroid size or architecture [4]: neither ERX-11, palbociclib, GDC-0810 nor AZD-9496, tamoxifen nor fulvestrant (at 200 nM) significantly disrupted spheroid size or architecture

C[C@]12CC[C@@H]3c4ccc(O)cc4C[C@@H](CCCCCCCCC[S+]([O-])CCCC(F)(F)C(F)(F)F)[C@H]3[C@@H]1CC[C@@H]2O (stereo partly shown) [fulvestrant]
colony formation in ZR-75 MT-ERα cells [1]: activity was not seen | time to WT-ERα degradation [13]: ≤ 4 h | soft agar colony formation [2]: significantly affected colony formation | ability to decrease MT-ERα protein levels [12]: neither fulvestrant nor GDC-0810 were able to decrease MT-ERα protein levels | spheroid size or architecture [4]: neither ERX-11, palbociclib, GDC-0810 nor AZD-9496, tamoxifen nor fulvestrant (at 200 nM) significantly disrupted spheroid size or architecture
